Tests used:
[1] = system: P. falciparum complex III; assay: DHO-cytochrome c reductase activity (DHODH coupled to complex III); format: biochemical; conditions: ratio mammalian / P. falciparum IC50
Experimental: (§1) A synchronized parasite culture was grown for 64 h and a crude mitochondrial fraction was prepared from trophozoite-stage cells (as confirmed by Giemsa staining). Infected red blood cells were collected by centrifugation at 800× g for 5 min at 4 °C and incubated for 5 min at room temperature with 40 mL of 0.075% (w/v) saponin in AIM buffer (120 mM KCl, 20 mM NaCl, 10 mM PIPES (1,4-piperazinediethanesulfonic acid) buffer [pH 6.7], 1 mM MgCl2, 5 mM glucose). Released parasites were collected by centrifugation at 2780× g for 7 min at 4 °C and washed three times with AIM buffer. P. falciparum was suspended in MSE buffer [225 mM mannitol, 75 mM sucrose, 0.1 mM ethylenediaminetetraacetic acid (EDTA), 3 mM Tris-HCl buffer, pH 7.4] containing 1 mM phenylmethylsulphonyl fluoride, and disrupted by nitrogen cavitation at 1200 psi using a 4639 Cell Disruption Bomb (Parr Instrument Company; Moline, IL, USA). The unbroken cells and cell debris were removed by centrifugation at 800× g for 5 min at 4 °C. The supernatant was centrifuged at 5000× g for 20 min at 4 °C. The resulting pellet was suspended in 200–400 μL MSE buffer and used as crude mitochondrial fraction for all enzymatic assays, as described previously.
(§2) DHO-cyt c activity was measured at 25 °C in 1 mL of the reaction mixture containing 20 μM cytochrome c and 2 mM KCN in 30 mM Tris-HCl buffer, pH 8.0. The reduction of cytochrome c was monitored at 550 nm after initiation of the reaction by addition of 500 μM dihydroorotate. Various concentrations of siccanin (formulated in DMSO) were added to the reaction mixtures before the initiation of the reactions. In all assays, the final concentration of DMSO was fixed at 0.1% (v/v). IC50 values were calculated using Prism® ver.6.01.

[2] = biological target: T1, P. falciparum complex III (Plasmodium falciparum, UniProt Q02768); assay: as above; format: biochemical
T1 construct: used as crude mitochondrial fraction for all enzymatic assays; endogenous in cells; host or cells: P. falciparum 3D7 trophozoite-stage parasites, crude mitochondrial fraction
Experimental: as §1, §2

Δsdha-3D7 P. falciparum = assay: Drug sensitivity assay, 72 h, PfLDH-based, sdha-disrupted strain; format: cell-based; conditions: Plasmodium falciparum, 3D7, read-out: Growth IC50, Δsdha-3D7
Experimental: The P. falciparum 3D7 strain was cultured, as described previously, in 3% hematocrit type A human red blood cells (RBCs) in RPMI1640 medium (Invitrogen; San Diego, CA, USA) supplemented with 25 mM sodium hydrogen biocarbonate, 10 μg/mL hypoxanthine, 40 μg/mL gentamicin sulfate, and 0.5% (w/v) Albumax II (Invitrogen) (“complete medium”). Cultures were maintained in a MG-70M multi-gas incubator (Taitec) under the conditions of 5% O2, 5% CO2, and 90% N2 at 37 °C. The medium was replaced daily. Parasitemia was measured by thin blood smears stained with Giemsa. In our previous study, we generated mutant P. falciparum strains expressing either disrupted or full-length versions of the flavoprotein (Fp) subunit (encoded by the Pfsdha gene). […]
Synchronized ring-form parasites (0.3% parasitemia) were prepared in complete medium containing different concentration of various compounds (at a fixed final DMSO concentration of 0.1% (v/v)) and distributed to 96-well plates at 100 μL/well. After 72 h of incubation, parasite growth was monitored by the previously described lactate dehydrogenase (PfLDH)-based assay method; plates were read using a SpectraMax® Paradigm spectrophotometer (Molecular Devices, Inc.; San Jose, CA, USA). EC50 values were calculated using Prism® ver.6.01 (GraphPad; San Diego, CA, USA). […]

[3] = system: malate:quinone oxidoreductase (MQO); assay: MQO activity, crude mitochondrial fraction, DCIP reduction; format: biochemical, Plasmodium falciparum
Experimental: (§3) A synchronized parasite culture was grown for 64 h and a crude mitochondrial fraction was prepared from trophozoite-stage cells (as confirmed by Giemsa staining). Infected red blood cells were collected by centrifugation at 800× g for 5 min at 4 °C and incubated for 5 min at room temperature with 40 mL of 0.075% (w/v) saponin in AIM buffer (120 mM KCl, 20 mM NaCl, 10 mM PIPES (1,4-piperazinediethanesulfonic acid) buffer [pH 6.7], 1 mM MgCl2, 5 mM glucose). Released parasites were collected by centrifugation at 2780× g for 7 min at 4 °C and washed three times with AIM buffer. […]
(§4) Complex II, DHODH, MQO, NDH2, G3PDH, and dihydroorotate-cytochrome c (DHO-cyt c) reductase activities were measured, as described previously, using a V-660 spectrophotometer (JASCO; Tokyo, Japan). Briefly, complex II activity was measured at 25 °C in a 1 mL reaction mixture containing 45 μM 2,6-dichlorophenolidophenol (DCIP), 100 μM ubiquinone-2 (UQ2), and 2 mM KCN in 50 mM potassium phosphate buffer, pH 8.0. DHODH, MQO, and G3PDH activities were measured at 25 °C in 1 mL of the reaction mixture containing 45 μM DCIP, 100 μM UQ2, and 2 mM KCN in 30 mM Tris-HCl buffer, pH 8.0. […] NDH2 activity was measured at 25 °C in 1 mL of the reaction mixture containing 100 µM UQ1 and 2 mM KCN in 50 mM potassium phosphate buffer, pH 8.0. […]

P. falciparum 3D7-yDHODH = assay: Growth inhibition of yeast DHODH-expressing strain; format: cell-based; conditions: Plasmodium falciparum, 3D7, read-out: Growth inhibition EC50, 3D7-yDHODH
Experimental: (§5) P. falciparum 3D7-yDHODH was prepared and maintained as described previously. P. falciparum Dd2, and Dd2-derived mutant strains were kindly provided by David A. Fidock, and maintained at Nagasaki University essentially as described in reference, except without supplementation with WR99210.
(§6) Synchronized ring-form parasites (0.3% parasitemia) were prepared in complete medium containing different concentration of various compounds (at a fixed final DMSO concentration of 0.1% (v/v)) and distributed to 96-well plates at 100 μL/well. After 72 h of incubation, parasite growth was monitored by the previously described lactate dehydrogenase (PfLDH)-based assay method; plates were read using a SpectraMax® Paradigm spectrophotometer (Molecular Devices, Inc.; San Jose, CA, USA). EC50 values were calculated using Prism® ver.6.01 (GraphPad; San Diego, CA, USA). Values are presented as the means of three independent experiments.

[4] = system: Dd2_048 (PI4K-S743T mutation); assay: Growth inhibition of Dd2_048 (MMV390048-resistant); format: cell-based; conditions: Plasmodium falciparum, read-out: Growth inhibition EC50, 048
Experimental: as §5, §6

P. falciparum complex II = P. falciparum complex II (Plasmodium falciparum, UniProt Q8I5S5+Q8IJU2); assay: succinate:ubiquinone reductase (SQR) activity, crude mitochondrial fraction, DCIP reduction; format: biochemical; conditions: siccanin 10 μM; read-out: Relative residual activity of SQR
Experimental: as §3, §4

[5] = system: Dd2_DDD (eEF2-Y186N mutation); assay: Growth inhibition of Dd2_DDD (DDD107498-resistant); format: cell-based; conditions: Plasmodium falciparum, read-out: Growth inhibition EC50, DDD
Experimental: as §5, §6

T1 sequence (Q02768 whole entry, one chain of several): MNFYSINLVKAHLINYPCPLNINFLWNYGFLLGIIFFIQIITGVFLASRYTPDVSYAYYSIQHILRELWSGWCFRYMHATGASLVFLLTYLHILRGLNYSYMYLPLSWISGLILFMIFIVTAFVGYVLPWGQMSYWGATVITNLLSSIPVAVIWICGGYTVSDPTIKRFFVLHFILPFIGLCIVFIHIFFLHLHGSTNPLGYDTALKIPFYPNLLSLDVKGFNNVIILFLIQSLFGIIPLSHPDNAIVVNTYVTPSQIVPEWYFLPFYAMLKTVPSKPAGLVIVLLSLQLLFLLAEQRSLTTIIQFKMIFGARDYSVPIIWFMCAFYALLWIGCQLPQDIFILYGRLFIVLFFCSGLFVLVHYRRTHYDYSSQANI
P. falciparum complex II, sequence (Q8IJ66 entry or part of it): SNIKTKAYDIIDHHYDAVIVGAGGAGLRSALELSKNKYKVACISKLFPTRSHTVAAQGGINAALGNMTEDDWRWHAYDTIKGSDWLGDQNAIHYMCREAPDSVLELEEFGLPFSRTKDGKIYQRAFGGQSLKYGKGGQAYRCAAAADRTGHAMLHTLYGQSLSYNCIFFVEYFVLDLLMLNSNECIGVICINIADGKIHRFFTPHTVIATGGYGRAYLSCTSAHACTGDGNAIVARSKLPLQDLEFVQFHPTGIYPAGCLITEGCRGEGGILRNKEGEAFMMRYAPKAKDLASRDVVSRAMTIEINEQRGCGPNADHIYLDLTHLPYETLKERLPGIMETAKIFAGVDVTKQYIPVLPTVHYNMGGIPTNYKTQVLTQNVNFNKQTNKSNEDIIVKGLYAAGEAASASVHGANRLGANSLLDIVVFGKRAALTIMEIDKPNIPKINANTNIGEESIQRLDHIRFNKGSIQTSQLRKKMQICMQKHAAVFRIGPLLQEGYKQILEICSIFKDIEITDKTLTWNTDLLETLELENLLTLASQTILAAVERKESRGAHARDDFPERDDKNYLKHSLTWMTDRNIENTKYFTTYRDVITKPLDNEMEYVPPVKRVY
P. falciparum complex II, sequence (Q8IJU2 entry or part of it): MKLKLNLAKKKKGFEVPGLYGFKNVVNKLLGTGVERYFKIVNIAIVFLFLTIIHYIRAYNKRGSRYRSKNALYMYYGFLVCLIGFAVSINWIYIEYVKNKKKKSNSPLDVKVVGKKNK
P. falciparum complex II, sequence (Q8I5S5 entry or part of it): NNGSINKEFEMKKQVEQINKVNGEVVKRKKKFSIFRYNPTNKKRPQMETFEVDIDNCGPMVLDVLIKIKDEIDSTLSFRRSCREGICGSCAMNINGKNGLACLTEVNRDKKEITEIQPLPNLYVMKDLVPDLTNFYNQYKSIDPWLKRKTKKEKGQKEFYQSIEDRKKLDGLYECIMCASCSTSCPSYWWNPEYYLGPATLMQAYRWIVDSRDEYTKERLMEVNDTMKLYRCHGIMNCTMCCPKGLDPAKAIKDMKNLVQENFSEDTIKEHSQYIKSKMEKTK

Cc1cc(O)c2c(c1)O[C@@]1(C)CC[C@H]3C(C)(C)CCC[C@]34CO[C@@H]2[C@H]41 [Siccanin]
Selectivity, Complex III [1]: >60 | Effect on DHO-cyt c activity ([2]; 60 μM): completely inhibits | IC50 ([2]; P. falciparum crude mitochondrial fraction, read-out: Complex III (DHO-cyt c activity) IC50): 8.39 µM | IC50 (Δsdha-3D7 P. falciparum): 6.13 ± 0.91 µM | Effect on MQO activity ([3]; 10 µM): did not inhibit | Relative residual activity of MQO ([3]; siccanin 10 μM): 109.2 ± 2.0% | EC50 (P. falciparum 3D7-yDHODH): 10.3 µM | EC50 [4]: 13.5 µM | remaining activity at 10 µM (P. falciparum complex II): 2.7 ± 6.5% | EC50 [5]: 13.1 µM

— PMC9319939, “Siccanin Is a Dual-Target Inhibitor of Plasmodium falciparum Mitochondrial Complex II and Complex III” (Pharmaceuticals, 2022)
